Measurements reported in ChEMBL document CHEMBL3885881, “DrugMatrix”.

Species: Rattus norvegicus
Experiment: DrugMatrix - Regimen: Daily Repeat
Format: toxicity, organism-based, Sprague-Dawley
Parameters: regimen Daily Repeat, gender Male, age 6-8 weeks
Details: in vivo, po, route oral GAVAGE, vehicle .5 % CMC; for ABSOLUTE BASOPHIL / ABSOLUTE EOSINOPHIL / ABSOLUTE LYMPHOCYTE / ABSOLUTE MONOCYTE / ABSOLUTE SEGMENTED NEUTROPHIL / BASOPHIL / EOSINOPHIL / ERYTHROCYTE COUNT / HEMATOCRIT / HEMOGLOBIN / LEUKOCYTE COUNT / LYMPHOCYTE / MEAN CORPUSCULAR HEMOGLOBIN / MEAN CORPUSCULAR HEMOGLOBIN CONCENTRATION / MEAN CORPUSCULAR VOLUME / MONOCYTE / NEUTROPHIL / NUCLEATED RED BLOOD CELLS / PLATELET COUNT: tissue Blood; for ALANINE AMINOTRANSFERASE / ALBUMIN / ALKALINE PHOSPHATASE / ASPARTATE AMINOTRANSFERASE / BLOOD UREA NITROGEN / CARBON DIOXIDE / CHLORIDE / CHOLESTEROL / CREATINE PHOSPHOKINASE / CREATININE / GLUCOSE / LACTATE DEHYDROGENASE / LIPASE / PHOSPHORUS / POTASSIUM / SODIUM / TOTAL BILIRUBIN / TOTAL PROTEIN / URIC ACID: tissue Plasma
[1] = 0 mg/kg, 72 h, dose level Control, time 3 day
[2] = 0 mg/kg, 120 h, dose level Control, time 5 day
[3] = 580 mg/kg, 72 h, dose level High, time 3 day

Compound: CN1C(=O)COc2c(C(=O)NC3CN4CCC3CC4)cc(Cl)cc21 (centres undefined) [AZASETRON]
- ABSOLUTE BASOPHIL [1]: 0 CELLS/uL
- ABSOLUTE EOSINOPHIL [1]: 47.67 CELLS/uL
- ABSOLUTE LYMPHOCYTE [1]: 15937.67 CELLS/uL
- ABSOLUTE MONOCYTE [1]: 138.33 CELLS/uL
- ABSOLUTE SEGMENTED NEUTROPHIL [1]: 1443 CELLS/uL
- BASOPHIL [1]: 0%
- EOSINOPHIL [1]: 0.33%
- ERYTHROCYTE COUNT [1]: 5.45 x10E6/uL
- HEMATOCRIT [1]: 34.43%
- HEMOGLOBIN [1]: 13.38 G/DL
- LEUKOCYTE COUNT [1]: 17.57 x10E3/uL
- LYMPHOCYTE [1]: 90.33%
- MEAN CORPUSCULAR HEMOGLOBIN [1]: 24.6 pg
- MEAN CORPUSCULAR HEMOGLOBIN CONCENTRATION [1]: 38.88 G/DL
- MEAN CORPUSCULAR VOLUME [1]: 63.27 fL
- MONOCYTE [1]: 0.83%
- NEUTROPHIL [1]: 8.5%
- NUCLEATED RED BLOOD CELLS [1]: 0 /100WBC
- PLATELET COUNT [1]: 1298 x10E3/uL
- ALANINE AMINOTRANSFERASE [1]: 47.67 u/L
- ALBUMIN [1]: 4.18 G/DL
- ALKALINE PHOSPHATASE [1]: 398.5 u/L
- ASPARTATE AMINOTRANSFERASE [1]: 93.17 u/L
- BLOOD UREA NITROGEN [1]: 16 mg/dL
- CARBON DIOXIDE [1]: 29.17 mmol/L
- CHLORIDE [1]: 98.17 MEQ/L
- CHOLESTEROL [1]: 68.83 mg/dL
- CREATINE PHOSPHOKINASE [1]: 467.33 u/L
- CREATININE [1]: 0.14 mg/dL
- GLUCOSE [1]: 151.67 mg/dL
- LACTATE DEHYDROGENASE [1]: 597.5 u/L
- LIPASE [1]: 9.33 u/L
- PHOSPHORUS [1]: 11.97 mg/dL
- POTASSIUM [1]: 6.43 MEQ/L
- SODIUM [1]: 140.68 MEQ/L
- TOTAL BILIRUBIN [1]: 0.18 mg/dL
- TOTAL PROTEIN [1]: 5.82 G/DL
- URIC ACID [1]: 1.48 mg/dL
- ABSOLUTE BASOPHIL [2]: 0 CELLS/uL
- ABSOLUTE EOSINOPHIL [2]: 31 CELLS/uL
- ABSOLUTE LYMPHOCYTE [2]: 14327.83 CELLS/uL
- ABSOLUTE MONOCYTE [2]: 102.83 CELLS/uL
- ABSOLUTE SEGMENTED NEUTROPHIL [2]: 1321.67 CELLS/uL
- BASOPHIL [2]: 0%
- EOSINOPHIL [2]: 0.17%
- ERYTHROCYTE COUNT [2]: 5.79 x10E6/uL
- HEMATOCRIT [2]: 36.1%
- HEMOGLOBIN [2]: 14.15 G/DL
- LEUKOCYTE COUNT [2]: 15.78 x10E3/uL
- LYMPHOCYTE [2]: 90.5%
- MEAN CORPUSCULAR HEMOGLOBIN [2]: 24.48 pg
- MEAN CORPUSCULAR HEMOGLOBIN CONCENTRATION [2]: 39.22 G/DL
- MEAN CORPUSCULAR VOLUME [2]: 62.4 fL
- MONOCYTE [2]: 0.67%
- NEUTROPHIL [2]: 8.67%
- NUCLEATED RED BLOOD CELLS [2]: 0.17 /100WBC
- PLATELET COUNT [2]: 1211.67 x10E3/uL
- ALANINE AMINOTRANSFERASE [2]: 49 u/L
- ALBUMIN [2]: 4.27 G/DL
- ALKALINE PHOSPHATASE [2]: 356.67 u/L
- ASPARTATE AMINOTRANSFERASE [2]: 90.17 u/L
- BLOOD UREA NITROGEN [2]: 20.5 mg/dL
- CARBON DIOXIDE [2]: 29.17 mmol/L
- CHLORIDE [2]: 98 MEQ/L
- CHOLESTEROL [2]: 69.83 mg/dL
- CREATINE PHOSPHOKINASE [2]: 312 u/L
- CREATININE [2]: 0.21 mg/dL
- GLUCOSE [2]: 149.83 mg/dL
- LACTATE DEHYDROGENASE [2]: 322 u/L
- LIPASE [2]: 10 u/L
- PHOSPHORUS [2]: 12 mg/dL
- POTASSIUM [2]: 6.75 MEQ/L
- SODIUM [2]: 142.8 MEQ/L
- TOTAL BILIRUBIN [2]: 0.17 mg/dL
- TOTAL PROTEIN [2]: 6.1 G/DL
- URIC ACID [2]: 1.68 mg/dL
- ABSOLUTE BASOPHIL [3]: 0 CELLS/uL
- ABSOLUTE EOSINOPHIL [3]: 0 CELLS/uL
- ABSOLUTE LYMPHOCYTE [3]: 13751.33 CELLS/uL
- ABSOLUTE MONOCYTE [3]: 160.33 CELLS/uL
- ABSOLUTE SEGMENTED NEUTROPHIL [3]: 1088.33 CELLS/uL
- BASOPHIL [3]: 0%
- EOSINOPHIL [3]: 0%
- ERYTHROCYTE COUNT [3]: 6.01 x10E6/uL
- HEMATOCRIT [3]: 37.33%
- HEMOGLOBIN [3]: 14.57 G/DL
- LEUKOCYTE COUNT [3]: 15 x10E3/uL
- LYMPHOCYTE [3]: 91.67%
- MEAN CORPUSCULAR HEMOGLOBIN [3]: 24.27 pg
- MEAN CORPUSCULAR HEMOGLOBIN CONCENTRATION [3]: 39.03 G/DL
- MEAN CORPUSCULAR VOLUME [3]: 62.13 fL
- MONOCYTE [3]: 1%
- NEUTROPHIL [3]: 7.33%
- NUCLEATED RED BLOOD CELLS [3]: 0 /100WBC
- PLATELET COUNT [3]: 1244 x10E3/uL
- ALANINE AMINOTRANSFERASE [3]: 64.33 u/L
- ALBUMIN [3]: 4.27 G/DL
- ALKALINE PHOSPHATASE [3]: 372.33 u/L
- ASPARTATE AMINOTRANSFERASE [3]: 96.67 u/L
- BLOOD UREA NITROGEN [3]: 17.33 mg/dL
- CARBON DIOXIDE [3]: 26.67 mmol/L
- CHLORIDE [3]: 99.33 MEQ/L
- CHOLESTEROL [3]: 72.67 mg/dL
- CREATINE PHOSPHOKINASE [3]: 527.67 u/L
- CREATININE [3]: 0.25 mg/dL
- GLUCOSE [3]: 150 mg/dL
- LACTATE DEHYDROGENASE [3]: 877 u/L
- LIPASE [3]: 9.67 u/L
- PHOSPHORUS [3]: 11.3 mg/dL
- POTASSIUM [3]: 6.57 MEQ/L
- SODIUM [3]: 141.63 MEQ/L
- TOTAL BILIRUBIN [3]: 0.23 mg/dL
- TOTAL PROTEIN [3]: 6 G/DL
- URIC ACID [3]: 1.73 mg/dL
